The text below walks through data of patent publication US10323027B2, “2,3-dihydro-4H-1,3-benzoxazin-4-one derivatives as modulators of cholinergic muscarinic M1 receptor” (Takeda Pharmaceutical Company Limited, priority 2015, dated 2019).

Structures can show the parent of a compound that is named as a salt.

The experiment deals with T1, human M1 receptor (hCHRM1) (Homo sapiens, UniProt P11229).
T1 construct: expressed in transfected cells
T1 sequence (P11229 1-460): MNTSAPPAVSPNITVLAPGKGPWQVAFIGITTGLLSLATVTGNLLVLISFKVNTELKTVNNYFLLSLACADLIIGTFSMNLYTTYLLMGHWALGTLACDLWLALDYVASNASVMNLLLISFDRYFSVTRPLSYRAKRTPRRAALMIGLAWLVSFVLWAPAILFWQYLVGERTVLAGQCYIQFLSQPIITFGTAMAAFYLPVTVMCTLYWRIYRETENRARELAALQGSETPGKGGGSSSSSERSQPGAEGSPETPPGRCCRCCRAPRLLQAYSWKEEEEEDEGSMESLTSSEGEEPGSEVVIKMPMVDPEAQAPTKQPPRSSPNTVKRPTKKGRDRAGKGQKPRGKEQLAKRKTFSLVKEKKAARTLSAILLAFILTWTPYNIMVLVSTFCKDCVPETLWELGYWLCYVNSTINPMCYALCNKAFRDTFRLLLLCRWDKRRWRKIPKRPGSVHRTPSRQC
Description: Measurement of M1 receptor positive allosteric modulator (M1PAM) activity, Ca2+ fluorescence by FLIPRtetra (Experimental Example 1). The format is cell-based. The note with it: for activity (%) at 10 μM: 10 μM test compound, 100% = acetylcholine 1 μM, 0% = DMSO; for EC50: inflection point of concentration-dependent curve, in presence of acetylcholine at EC20 (0.8-1.0 nM), CHO-K1 cells expressing hCHRM1, read-out: IP value. The procedure: Measurement of M1 Receptor Positive Allosteric Modulator (M1PAM) Activity
The activity of a test compound in the presence of acetylcholine at EC20 concentration (final concentration 0.8-1.0 nM), which affords an action corresponding to about 20% of the maximum activity, was measured as PAM activity. The method is as follows. CHO-K1 cells stably expressing a human M1 receptor (hCHRM1) were plated on a 384-well black clear bottom plate (BD Falcon) at 5,000 cells/well, and cultured in an incubator at 37° C., 5% CO2 for 1 day. The medium in the cell plate was removed, and a dye solution (prepared by adding Recording medium (DOJINDO LABORATORIES) to a final concentration of 1×concentration, Fluo-4 AM (DOJINDO LABORATORIES) to a final concentration of 2.5 μg/mL, Pluronic F127 (DOJINDO LABORATORIES) to a final concentration of 0.08%, and probenecid (DOJINDO LABORATORIES) to a final concentration of 1.25 mM to assay buffer (HBSS (Invitrogen), 20 mM HEPES (Invitrogen), 0.1% BSA (Wako Pure Chemical Industries, Ltd.))) was added at 30 μL/well. The cells were left standing in the incubator at 37° C., 5% CO2 for 30 min, and further left standing at room temperature for 30 min. A test compound prepared by diluting with assay buffer containing 3.2-4.0 nM acetylcholine was added at 10 μL/well, and the fluorescence was measured by FLIPRtetra (Molecular Devices) for 1 min every 1 second. With the definition that the amount of change in the fluorescence on addition of acetylcholine (final concentration 1 μM) is 100% and that on addition of DMSO instead of a test compound is 0%, the activity (%) of the test compound was calculated, and the inflection point in the concentration-dependent curve of the test compound was calculated as IP values.

With `Cc1cc2c(cc1Cc1ccc(Cl)nc1)C(=O)N([C@H]1CCCC[C@@H]1O)CO2` (relative stereo) [Example 62, 6-((6-chloropyridin-3-yl)methyl)-3-(trans-2-hydroxycyclohexyl)-7-methyl-2,3-dihydro-4H-1,3-benzoxazin-4-one], the “activity (%) at 10 μM” value is listed as 91%.
For the molecule `Cc1ccc(Cc2cc3c(c4ccccc24)OCN([C@H]2COCC[C@@H]2O)C3=O)cn1` (single isomer, unassigned) [Example 3, 1,5-anhydro-2,4-dideoxy-2-(6-((6-methylpyridin-3-yl)methyl)-4-oxo-2H-naphtho[2,1-e][1,3]oxazin-3(4H)-yl)-threo-pentitol monohydrochloride (optical isomer)], the “activity (%) at 10 μM” value is 103% and the EC50 worked out at 2.5 nM.
For `Cc1ccc(Cc2cc3c(c(Cl)c2C)OCN(CC2CCCO2)C3=O)cn1` (stereo not shown) [Example 84, 8-chloro-7-methyl-6-((6-methylpyridin-3-yl)methyl)-3-(tetrahydrofuran-2-ylmethyl)-2,3-dihydro-4H-1,3-benzoxazin-4-one] the same measures were 93% and 96 nM.
As for `Cc1ccc(Cc2cc3c(c(C)c2C)OCN([C@H]2COCC[C@@H]2O)C3=O)cn1` [Example 137, 1,5-anhydro-2,4-dideoxy-2-(7,8-dimethyl-6-((6-methylpyridin-3-yl)methyl)-4-oxo-2H-1,3-benzoxazin-3(4H)-yl)-L-threo-pentitol], the “activity (%) at 10 μM” value was 104% and the EC50 was 14 nM.
For `Cc1c(Cc2ccc(Cl)nc2)cc2c(c1C)OCN([C@H]1COCC[C@@H]1O)C2=O` [Example 10, 1,5-anhydro-2-(6-((6-chloropyridin-3-yl)methyl)-7,8-dimethyl-4-oxo-2H-1,3-benzoxazin-3(4H)-yl)-2,4-dideoxy-L-threo-pentitol] the same measures were 109% and 9.1 nM.
For `Cc1ccc(Cc2cc3c(c4ccccc24)OCN([C@H]2CCC[C@@H]2O)C3=O)cn1` [Example 40, 3-((1S,2S)-2-hydroxycyclopentyl)-6-((6-methylpyridin-3-yl)methyl)-2,3-dihydro-4H-naphtho[2,1-e][1,3]oxazin-4-one] the same measures were 98% and 1.6 nM.
For `Cc1c(Cc2ccc(-c3ccn(C)n3)cc2)cc2c(c1F)OCN([C@H]1CCC[C@@H]1O)C2=O` [Example 9, 8-fluoro-3-((1S,2S)-2-hydroxycyclopentyl)-7-methyl-6-(4-(1-methyl-1H-pyrazol-3-yl)benzyl)-2,3-dihydro-4H-1,3-benzoxazin-4-one] the same measures were 98% and 4.6 nM.
On to `O=C1c2cc(Cc3ccc(Cl)nc3)c3ccccc3c2OCN1CC1CCCO1` (stereo not shown) [Example 76, 6-((6-chloropyridin-3-yl)methyl)-3-(tetrahydrofuran-2-ylmethyl)-2,3-dihydro-4H-naphtho[2,1-e][1,3]oxazin-4-one], for which the “activity (%) at 10 μM” value was 93% and the EC50 is 63 nM.
`COc1c(Cc2ccc(-n3cccn3)nc2)cc2c(c1F)OCN([C@H]1CCC[C@@H]1O)C2=O` (relative stereo) [Example 15, 8-fluoro-3-(trans-2-hydroxycyclopentyl)-7-methoxy-6-((6-(1H-pyrazol-1-yl)pyridin-3-yl)methyl)-2,3-dihydro-4H-1,3-benzoxazin-4-one]: the “activity (%) at 10 μM” value was determined as 92% and the EC50 amounted to 19 nM.
For `COc1ccc(Cc2cc3c(cc2C)OCN([C@H]2CCC[C@@H]2O)C3=O)cc1` [Example 73, 3-((1S,2S)-2-hydroxycyclopentyl)-6-(4-methoxybenzyl)-7-methyl-2,3-dihydro-4H-1,3-benzoxazin-4-one] the same measures were 97% and 59 nM.
For `Cn1cc(-c2ccc(Cc3ccc4c(c3)C(=O)N([C@H]3CCCC[C@@H]3O)CO4)cc2)cn1` (relative stereo) [Example 66, 3-(trans-2-hydroxycyclohexyl)-6-(4-(1-methyl-1H-pyrazol-4-yl)benzyl)-2,3-dihydro-4H-1,3-benzoxazin-4-one] the same measures were 93% and 44 nM.
For `Cc1c(Cc2ccc(C#N)cc2)cc2c(c1C)OCN([C@H]1CCC[C@@H]1O)C2=O` [Example 44, 4-((3-((1S,2S)-2-hydroxycyclopentyl)-7,8-dimethyl-4-oxo-3,4-dihydro-2H-1,3-benzoxazin-6-yl)methyl)benzonitrile] the same measures were 99% and 3.9 nM.
With `Cc1cc2c(cc1CN1CCC(F)(F)CC1)C(=O)N([C@H]1CCCC[C@@H]1O)CO2` (relative stereo) [Example 85, 6-((4,4-difluoropiperidin-1-yl)methyl)-3-(trans-2-hydroxycyclohexyl)-7-methyl-2,3-dihydro-4H-1,3-benzoxazin-4-one], the “activity (%) at 10 μM” value stood at 104% and the EC50 was determined as 110 nM.
For `Cc1ccc(Cc2cc3c(cc2C)OCN([C@H]2CCCC[C@@H]2O)C3=O)cn1` (relative stereo) [Example 33, 3-(trans-2-hydroxycyclohexyl)-7-methyl-6-((6-methylpyridin-3-yl)methyl)-2,3-dihydro-4H-1,3-benzoxazin-4-one] the same measures were 104% and 39 nM.
Regarding `Cc1ccc(Cc2cc3c(c(Cl)c2C)OCN([C@H]2COCC[C@@H]2O)C3=O)cn1` [Example 6, 1,5-anhydro-2-(8-chloro-7-methyl-6-((6-methylpyridin-3-yl)methyl)-4-oxo-2H-1,3-benzoxazin-3(4H)-yl)-2,4-dideoxy-L-threo-pentitol], the “activity (%) at 10 μM” value turned out to be 102% and the EC50 was 7 nM.
For `Cc1cc2c(cc1Cc1ccc(-n3cccn3)cc1)C(=O)N([C@H]1COCC[C@@H]1O)CO2` [Example 50, 1,5-anhydro-2,4-dideoxy-2-(7-methyl-4-oxo-6-(4-(1H-pyrazol-1-yl)benzyl)-2H-1,3-benzoxazin-3(4H)-yl)-L-threo-pentitol] the same measures were 120% and 8.6 nM.
Consider `Cc1ccc(Cc2cc3c(c4ccccc24)OCN(CC2CCCO2)C3=O)cn1` (stereo not shown) [Example 58, 6-((6-methylpyridin-3-yl)methyl)-3-(tetrahydrofuran-2-ylmethyl)-2,3-dihydro-4H-naphtho[2,1-e][1,3]oxazin-4-one], for which the “activity (%) at 10 μM” value is reported as 94% and the EC50 amounted to 16 nM.
For `Cc1cc2c(cc1Cc1ccc(-n3cccn3)cc1)C(=O)N([C@H]1CCC[C@@H]1O)CO2` [Example 35, 3-((1S,2S)-2-hydroxycyclopentyl)-7-methyl-6-(4-(1H-pyrazol-1-yl)benzyl)-2,3-dihydro-4H-1,3-benzoxazin-4-one] the same measures were 109% and 5.8 nM.
For `Cc1c(Cc2ccc(-n3ccnc3)nc2)cc2c(c1Cl)OCN([C@H]1CCC[C@@H]1O)C2=O` (relative stereo) [Example 39, 8-chloro-3-(trans-2-hydroxycyclopentyl)-6-((6-(1H-imidazol-1-yl)pyridin-3-yl)methyl)-7-methyl-2,3-dihydro-4H-1,3-benzoxazin-4-one] the same measures were 88% and 1.5 nM.
